# From PMC9994261 (Cell, 2023)
# Like-named read-outs stand apart in the source and are kept apart here.
# Legend:
# [1] = test system: GFP-expressing Mtb H37Rv in RAW264.7 macrophages; assay: Intramacrophage assay (MIC for Mtb in macrophages); format: cell-based, Mycobacterium tuberculosis; settings: Mycobacterium tuberculosis, H37RV
# [2] = format: in vitro ADME
# in vitro = in vitro ADME; settings: human, Caco-2; read-out: Permeability in Caco2 cells (Papp)
# RAW264.7 cells = format: in vitro ADME, murine; settings: RAW macrophages, 10 μM
# Method: RAW264.7 cells were allowed to adhere in 96 wells plates for 4 hours before compounds were added at 10 μM. Intracellular concentrations were measured by LC-MS/MS after cellular lysis. For each point, up to 4 hours, the Intra/Extra cellular ratio was calculated. Points are the mean ± SD of four tests. Clarithromycin and Azithromycin were used as references.
# in vivo = settings: male, Swiss, mouse, po; for AUC: oral 30 mg/kg
# Mtb methylated ribosome = assay: Mtb in vitro translation assay with methylated (erythromycin-treated) ribosome; format: biochemical, Mycobacterium tuberculosis; settings: read-out: Translation inhibition of Mtb methylated ribosome (IC50 μM)
# Mtb H37Rv [3] = format: cell-based, Mycobacterium tuberculosis; settings: 7-day treatment
# Mtb H37Rv [4] = assay: Mouse model of acute TB; format: in vivo; settings: 4 weeks
# Mtb H37Rv [5] = assay: MIC80 after overnight pre-incubation of Mtb with subinhibitory macrolide; format: cell-based; settings: Mycobacterium tuberculosis, read-out: MIC80
# [6] = pH 2, 50% acetonitrile/water
# physchem [7] = settings: pH 7.4
# [8] = format: in vitro ADME; remark: listed apart in the source
# physchem [9] = format: physicochemical
# M. bovis BCG Pasteur = assay: microbe, parasite or virus in culture; format: cell-based, Mycobacterium bovis
# [10] = format: in vitro ADME, human
# Method: The metabolic stability of test compounds was determined as described.[57]^,[58] Incubation and experimental conditions with human hepatic microsomal fractions (purchased from BD Gentest as a pooled batch from 6 donors) were as follows: microsomal proteins, 1 mg/mL; bovine serum albumin, 1 mg/mL; substrate, 5 μM; incubation duration, 20 min; cytochrome P-450 monooxygenases (CYPs) and flavin containing monooxygenases (FMOs) cofactor, 1 mM NADPH. Enzyme activity was stopped with 1 volume of acetonitrile. […] For each test compound and for each microsomal preparation, three incubations were prepared: absolute reference in buffer (without enzyme material, i.e., microsomes); incubation without NADPH cofactor (with microsomal fractions); and incubation with NADPH (with microsomal fractions). For most compounds, biotransformation, as observed in hepatic microsomal fractions in the presence of the NADPH cofactor, consists of oxidative reactions catalyzed by either CYPs or FMOs. In these conditions, the percentage of total metabolism, which corresponds to oxidative metabolism, was determined as follows: [% total metabolism] ≈ [% oxidative metabolism] = [unchanged compound (UC) peak area − NADPH UC peak area + NADPH] × 100%, where NADPH corresponds to the enzyme cofactor for oxidation reactions catalyzed by either CYP or FMO.
# Mtb H37Rv LuxAB [11] = assay: microbe, parasite or virus in culture; format: cell-based; settings: Mycobacterium tuberculosis
# [12] = format: in vitro ADME; remark: listed apart in the source
# Mtb H37Rv [13] = assay: Combination study in mouse model of TB; format: in vivo; settings: 4 weeks
# Mtb H37Rv [14] = assay: Mouse model of highly acute TB; format: in vivo
# Mtb H37Rv LuxAB [15] = assay: microbe, parasite or virus in culture; format: cell-based; settings: Mycobacterium tuberculosis; remark: listed apart in the source
# physchem [16] = assay: physchem
# Mtb ribosome = format: biochemical, Mycobacterium tuberculosis; settings: read-out: Inhibition of Mtb translation (IC50 μM)
# Mtb Erdman = assay: Mouse model of chronic TB; format: in vivo; settings: 300 mg/kg oral once daily
# [17] = mouse po 10 mg/kg, PEG200/Tween80/Citrate Buffer 100mM pH4 (70/5/25)
# [18] = mouse po 100 mg/kg, Lipidic formulation CremophorRH40/Capryol90/Mygliol812N (10/20/70) diluted in ½ water
# [19] = mouse po 100 mg/kg, PEG200/Tween80/Citrate Buffer 100mM pH4 (70/5/25)
# [20] = mouse po 300 mg/kg, PEG200/Tween80/Citrate Buffer 100mM pH4 (70/5/25)
compound,measurement,setting,value
CON=C1CC(C)OC(OC2C(C)CC(C)(OC(=O)NC(C)(C)CNS(=O)(=O)c3ccccc3)C(=O)C(C)C(OC(=O)CC(C)C)C(C)C(C(C)COC3OC(C)C(O)C(OC)C3OC)OC(=O)C(C)C(OC3CC(C)N(C)CC(C)O3)C2C)C1O (stereo not shown) [SEQ-9],MIC,[1]; read-out: MIC (μM) for Mtb in macrophages,0.15 µM
same,MIC,[1]; read-out: MIC for Mtb tuberculosis in macrophages,0.11 µM
same,Metabolic stability in rat liver microsomes (% metabolized compound after 20 min),[2],9%
same,Papp,in vitro,1.5 ×10⁻⁶ cm/s
same,Intra-macrophage ratio (intra versus extracellular concentration),RAW264.7 cells,~60 fold
same,bioavailability,in vivo,23%
same,AUC(0-t),"in vivo; 10 mg/kg, pH 4",1100 ng·h/mL
same,Cmax,"in vivo; 10 mg/kg, pH 4",140 ng/mL
same,half-life,"in vivo; 10 mg/kg, pH 4, Lung t1/2, mouse po 10 mg/kg, PEG200/Tween80/Citrate Buffer 100mM pH4 (70/5/25)",4.5 h
same,half-life,"in vivo; 10 mg/kg, pH 4, Plasma t1/2, mouse po 10 mg/kg, PEG200/Tween80/Citrate Buffer 100mM pH4 (70/5/25)",3 h
same,Kp,in vivo; 30 mg/kg,19
same,AUC,"in vivo; 30 mg/kg, AUC in lung @30 mg/kg, lung",120000 ng·h/mL
same,AUC,"in vivo; 30 mg/kg, AUC in plasma @30 mg/kg, plasma",6300 ng·h/mL
same,AUC(0-t),in vivo; 100 mg/kg,22000 ng·h/mL
same,Cmax,in vivo; 100 mg/kg,2130 ng/mL
same,half-life,"in vivo; 100 mg/kg, Lung t1/2, mouse po 100 mg/kg, Lipidic formulation CremophorRH40/Capryol90/Mygliol812N (10/20/70) diluted in ½ water",4.5 h
same,half-life,"in vivo; 100 mg/kg, Plasma t1/2, mouse po 100 mg/kg, Lipidic formulation CremophorRH40/Capryol90/Mygliol812N (10/20/70) diluted in ½ water",4.2 h
same,AUC(0-t),"in vivo; 100 mg/kg, pH 4",11000 ng·h/mL
same,Cmax,"in vivo; 100 mg/kg, pH 4",1390 ng/mL
same,half-life,"in vivo; 100 mg/kg, pH 4, Lung t1/2, mouse po 100 mg/kg, PEG200/Tween80/Citrate Buffer 100mM pH4 (70/5/25)",6.5 h
same,half-life,"in vivo; 100 mg/kg, pH 4, Plasma t1/2, mouse po 100 mg/kg, PEG200/Tween80/Citrate Buffer 100mM pH4 (70/5/25)",4.4 h
same,AUC(0-t),"in vivo; 300 mg/kg, pH 4",21000 ng·h/mL
same,Cmax,"in vivo; 300 mg/kg, pH 4",3110 ng/mL
same,half-life,"in vivo; 300 mg/kg, pH 4, Lung t1/2, mouse po 300 mg/kg, PEG200/Tween80/Citrate Buffer 100mM pH4 (70/5/25)",11 h
same,IC50,Mtb methylated ribosome,0.064 µM
same,log CFU reduction (in vitro bactericidal activity),Mtb H37Rv [3]; 30 μM,1.5 log CFU
same,log CFU reduction (in vitro bactericidal activity),Mtb H37Rv [3]; 60 μM,2.5 log CFU
same,Survival of infected mice,"Mtb H37Rv [4]; 37.5 to 300 mg/kg oral, 5 days per week, untreated controls died within 4 weeks",survived at all doses administered
same,"Minimum effective dose (MED), complete prevention of bacterial growth","Mtb H37Rv [4]; oral, methylcellulose-Tween formulation",300 mg/kg
same,MIC80,Mtb H37Rv [5]; Without induction,1 µM
same,MIC80,Mtb H37Rv [5]; overnight pre-incubation with SEQ-9 0.125µg/ml,1 µM
same,MIC80,Mtb H37Rv [5]; overnight pre-incubation with SEQ-9 0.25µg/ml,1 µM
same,MIC80,Mtb H37Rv [5]; overnight pre-incubation with clarithromycin 0.125µg/ml,1 µM
same,MIC80,Mtb H37Rv [5]; overnight pre-incubation with clarithromycin 0.25µg/ml,1 µM
same,Chemical stability: t/12@pH 2,[6],48 h
same,logD,physchem [7],3.4
same,Metabolic degradation/clearance from human liver microsomes,[8],0.03 mL/h/10^6 hepatocytes
same,solubility,"physchem [9]; MCT pH 7.4, read-out: Solubility: MCT@pH 7.4",530 µg/mL
same,solubility,"physchem [9]; aqueous buffer, PBS pH 7.4, read-out: Solubility: PBS@pH 7.4",51 µg/mL
same,Growth inhibition (MIC80),M. bovis BCG Pasteur,0.56 µM
same,MIC80,"M. bovis BCG Pasteur; Mycobacterium tuberculosis variant bovis BCG, BCG, read-out: Growth inhibition (MIC80)",0.32 µM
same,MIC,"M. bovis BCG Pasteur; Mycobacterium tuberculosis variant bovis BCG, BCG, read-out: MIC in Pasteur M. bovis BCG",0.32 µM
same,Metabolic stability in human liver microsomes (% metabolized compound after 20 min),[10]; 20 min incubation,10%
same,"Metabolic stability in human liver microsomes (% metabolized compound after 20 min), (K)",[10]; in presence of ketoconazole CYP3A inhibitor (K),0(K) %
same,"Metabolic stability in human liver microsomes (% metabolized compound after 20 min), (Q)",[10]; in presence of quinidine CYP2D6 inhibitor (Q),/10(Q) %
same,MIC,Mtb H37Rv LuxAB [11]; read-out: MIC (μM) for Mtb in liquid culture + 25% human serum,1.2 µM
same,MIC,Mtb H37Rv LuxAB [11]; read-out: MIC (μM) for Mtb in liquid culture + 25% mouse serum,2.1 µM
same,Metabolic stability in mouse liver microsomes (% metabolized compound after 20 min),[12],8%
same,Additional reduction of lung CFU compared with B or Pa alone,Mtb H37Rv [13]; SEQ-9 300 mg/kg added to B or Pa,approximately 1 log10 CFU
same,Additional reduction of lung CFU compared with L or Z alone,Mtb H37Rv [13]; SEQ-9 300 mg/kg added to L or Z,approximately 0.5 log units
same,Decrease in CFU,"Mtb H37Rv [14]; 100 mg/kg, lipid-based formulation",2 log10
same,Reduction of mean lung CFU,"Mtb H37Rv [14]; 300 mg/kg, after 2 weeks of treatment",1.42 log10
same,Minimum effective dose (MED),Mtb H37Rv [14]; lipid-based formulation,100 mg/kg
same,MIC,Mtb H37Rv LuxAB [15]; read-out: MIC for Mtb under anaerobic conditions (LORA),0.6 µM
same,MBC,Mtb H37Rv LuxAB [15]; read-out: Minimal bactericidal concentration (MBC) for Mtb under anaerobic conditions (LORA),6.3 µM
same,pKa,physchem [16],8.3
same,Lung AUC0-24,[17],7800 ng·h/mL
same,Lung Cmax,[17],790 ng/mL
same,Lung AUC0-24,[18],440000 ng·h/mL
same,Lung Cmax,[18],31900 ng/mL
same,Lung AUC0-24,[19],190000 ng·h/mL
same,Lung Cmax,[19],32900 ng/mL
same,Lung AUC0-24,[20],840000 ng·h/mL
same,Lung Cmax,[20],252000 ng/mL
same,Higher plasma AUC compared with SEQ-372,same oral dose of 30 mg/kg in mouse,6 fold
same,IC50,Mtb ribosome,0.075 µM
same,log CFU reduction compared with pre-treatment CFU,Mtb Erdman,1.7 log CFU
